In patent US10759790B2, “Heterocyclic constrained tricyclic sulfonamides as anti-cancer agents” (ICAHN SCHOOL OF MEDICINE AT MOUNT SINAI, priority 2015, dated 2020):
Where two headings read alike, the source gives them in different places.

Tested on: H1650 lung cancer cells
Assay: Cell viability assay (MTT, IC50 determination)
Assay type: cell-based
Details: for IC50: Homo sapiens, read-out: H1650 cell viability IC50; for H1650 cell viability, % at 40 uM: 48 hours
Description: Cell viability assays were performed according to Denizot, F. and R. Lang, Journal of Immunological Methods, 1986. 89(22): p. 271-277. H1650 lung cancer cells were plated at 150,000 cells per well in a 12 well plate. Twenty-four hours after plating, cells were treated as described with increasing concentrations of drug and control. Forty-eight hours after drug treatment, cells were treated with 100 μL of 3-(4,5-Dimethylthiazol-2-yl)-2,5-diphenyltetrazolium bromide (MTT) and incubated for 2 hours at 37 C. The MTT solution was subsequently replaced with 300 μL of n-propyl alcohol and re-aliquoted to a 96 well plate. Spectrophotometric analysis of each solution was performed using a 96 well plate reader at 600 nm in triplicate.

[1] = NCI-H1650, H1650 lung cancer cells, MTT, 48 hours after drug treatment

Compound | IC50 [1] [µM] | other results
O=S(=O)(N[C@@H]1COC[C@H](N2c3ccccc3Oc3ccccc32)[C@H]1O)c1ccc(Cl)s1 [Example 62, 5-chloro-N-((3R,4R,5S)-4-hydroxy-5-(10H-phenoxazin-10-yl)tetrahydro-2H-pyran-3-yl)thiophene-2-sulfonamide] | 15 | –
CC(C)(C)OC(=O)N1C[C@@H](NS(=O)(=O)c2ccc(OC(F)(F)F)cc2)[C@H](O)[C@@H](n2c3ccc(F)cc3c3cc(F)ccc32)C1 [Example 54, (3S,4R,5R)-tert-butyl 3-(3,6-difluoro-9H-carbazol-9-yl)-4-hydroxy-5-(4-(trifluoromethoxy)phenylsulfonamido)piperidine-1-carboxylate] | 5 | –
O=S(=O)(N[C@@H]1COC[C@H](N2c3ccccc3Oc3cc(C(F)(F)F)ccc32)[C@H]1O)c1ccc(OC(F)(F)F)cc1 [Example 15, N-((3R,4R,5S)-4-hydroxy-5-(3-(trifluoromethyl)-10H-phenoxazin-10-yl)tetrahydro-2H-pyran-3-yl)-4-(trifluoromethoxy)benzenesulfonamide] | 5 | –
O=S(=O)(N[C@@H]1COC[C@H](n2c3ccc(F)cc3c3cc(F)ccc32)[C@H]1O)c1ccc(OC(F)(F)F)cc1 [Example 3, N-((3R,4R,5S)-5-(3,6-difluoro-9H-carbazol-9-yl)-4-hydroxytetrahydro-2H-pyran-3-yl)-4-(trifluoromethoxy)benzenesulfonamide] | 10 | –
O=S(=O)(N[C@@H]1CNCC(N2c3ccccc3Oc3ccccc32)[C@H]1O)c1ccc(OC(F)(F)F)cc1 (mixture of isomers) [Example 17, Rac-N-((3R,4R,5S)-4-hydroxy-5-(10H-phenoxazin-10-yl)piperidin-3-yl)-4-(trifluoromethoxy)benzenesulfonamide] | 5 | –
CC(C)(C)OC(=O)Nc1ccc(S(=O)(=O)N[C@@H]2COC[C@H](N3c4ccccc4Oc4ccccc43)[C@H]2O)cc1 [Example 66, tert-butyl (4-(N-((3R,4R,5S)-4-hydroxy-5-(10H-phenoxazin-10-yl)tetrahydro-2H-pyran-3-yl)sulfamoyl)phenyl)carbamate] | 5 | –
O=S(=O)(N[C@@H]1COC[C@H](N2c3ccc(Cl)cc3Oc3cc(Cl)ccc32)[C@H]1O)c1ccc(OC(F)(F)F)cc1 [Example 12, N-((3R,4R,5S)-5-(3,7-dichloro-10H-phenoxazin-10-yl)-4-hydroxytetrahydro-2H-pyran-3-yl)-4-(trifluoromethoxy)benzenesulfonamide] | 10 | –
O=S(=O)(N[C@@H]1COC[C@H](N2c3ccccc3Oc3cc(Cl)ccc32)[C@H]1O)c1ccc(OC(F)(F)F)cc1 [Example 13, N-((3R,4R,5S)-5-(3-chloro-10H-phenoxazin-10-yl)-4-hydroxytetrahydro-2H-pyran-3-yl)-4-(trifluoromethoxy)benzenesulfonamide] | 5 | –
CC(C)(C)OC(=O)N1CC(N2c3ccccc3Oc3ccccc32)[C@@H](O)[C@H](NS(=O)(=O)c2ccc(OC(F)(F)F)cc2)C1 (mixture of isomers) [Example 16, Rac-(3S,4R,5R)-tert-butyl 4-hydroxy-3-(10H-phenoxazin-10-yl)-5-(4-(trifluoromethoxy)phenylsulfonamido)piperidine-1-carboxylate] | 10 | –
O=S(=O)(N[C@@H]1COCC(n2c3ccccc3c3ccccc32)[C@H]1O)c1ccc(OC(F)(F)F)cc1 (mixture of isomers) [Example 1, Rac-N-(3R,4R,5S)-5-(9H-carbazol-9-yl)-4-hydroxytetrahydro-2H-pyran-3-yl)-4-(trifluoromethoxy)benzenesulfonamide] | 15 | –
O=S(=O)(N[C@@H]1CNC[C@H](n2c3ccc(F)cc3c3cc(F)ccc32)[C@H]1O)c1ccc(OC(F)(F)F)cc1 [Example 55, N-((3R,4R,5S)-5-(3,6-difluoro-9H-carbazol-9-yl)-4-hydroxypiperidin-3-yl)-4-(trifluoromethoxy)benzenesulfonamide] | 5 | –
O=S(=O)(N[C@@H]1CNC[C@H](N2c3ccc(C(F)(F)F)cc3Oc3cc(C(F)(F)F)ccc32)[C@H]1O)c1ccc(OC(F)(F)F)cc1 [Example 58, N-((3R,4R,5S)-5-(3,7-bis(trifluoromethyl)-10H-phenoxazin-10-yl)-4-hydroxypiperidin-3-yl)-4-(trifluoromethoxy)benzenesulfonamide] | 5 | –
COC(=O)N1C[C@H](NS(=O)(=O)c2ccc(OC(F)(F)F)cc2)[C@@H](O)[C@H](N2c3ccccc3Oc3ccccc32)C1 [Example 20b, (3R,4S,5S)-methyl 4-hydroxy-3-(10H-phenoxazin-10-yl)-5-(4-(trifluoromethoxy)phenylsulfonamido)piperidine-1-carboxylate] | – | IC50 (NCI-H1650, 48 h): 5 µM
Nc1ccc(S(=O)(=O)N[C@@H]2COC[C@H](N3c4ccccc4Oc4ccccc43)[C@H]2O)cc1 [Example 67, 4-amino-N-((3R,4R,5S)-4-hydroxy-5-(10H-phenoxazin-10-yl)tetrahydro-2H-pyran-3-yl)benzenesulfonamide] | – | H1650 cell viability, % at 40 uM (H1650 lung cancer cells, MTT): 56% at 40 uM
Cc1ccc2c(c1)c1cc(C)ccc1n2[C@H]1COC[C@@H](NS(=O)(=O)c2ccc(OC(F)(F)F)cc2)[C@@H]1O [Example 51, N-((3R,4R,5S)-5-(3,6-dimethyl-9H-carbazol-9-yl)-4-hydroxytetrahydro-2H-pyran-3-yl)-4-(trifluoromethoxy)benzenesulfonamide] | 5 | –
CC(C)(C)OC(=O)N1C[C@@H](NS(=O)(=O)c2ccc(OC(F)(F)F)cc2)[C@H](O)[C@@H](n2c3ccc(Cl)cc3c3cc(Cl)ccc32)C1 [Example 56, (3S,4R,5R)-tert-butyl 3-(3,6-dichloro-9H-carbazol-9-yl)-4-hydroxy-5-(4-(trifluoromethoxy)phenylsulfonamido)piperidine-1-carboxylate] | 5 | –
O=S(=O)(N[C@@H]1COC[C@H](N2c3ccccc3Oc3cc(F)ccc32)[C@H]1O)c1ccc(OC(F)(F)F)cc1 [Example 11, N-((3R,4R,5S)-5-(3-fluoro-10H-phenoxazin-10-yl)-4-hydroxytetrahydro-2H-pyran-3-yl)-4-(trifluoromethoxy)benzenesulfonamide] | 10 | –
CC(C)(C)OC(=O)Nc1cccc(S(=O)(=O)N[C@@H]2COC[C@H](N3c4ccccc4Oc4ccccc43)[C@H]2O)c1 [Example 68, tert-butyl (3-(N-((3R,4R,5S)-4-hydroxy-5-(10H-phenoxazin-10-yl)tetrahydro-2H-pyran-3-yl)sulfamoyl)phenyl)carbamate] | 5 | –
Nc1cccc(S(=O)(=O)N[C@@H]2COC[C@H](N3c4ccccc4Oc4ccccc43)[C@H]2O)c1 [Example 69, 3-amino-N-((3R,4R,5S)-4-hydroxy-5-(10H-phenoxazin-10-yl)tetrahydro-2H-pyran-3-yl)benzenesulfonamide] | – | H1650 cell viability, % at 40 uM (H1650 lung cancer cells, MTT): 54% at 40 uM
O=S(=O)(N[C@@H]1COC[C@H](N2c3ccccc3Oc3ccccc32)[C@H]1O)c1ccc(Cl)cc1 [Example 61, 4-chloro-N-((3R,4R,5S)-4-hydroxy-5-(10H-phenoxazin-10-yl)tetrahydro-2H-pyran-3-yl)benzenesulfonamide] | 5 | –
[N-]=[N+]=Nc1ccc(S(=O)(=O)N[C@@H]2COC[C@H](N3c4ccccc4Oc4ccccc43)[C@H]2O)cc1 [Example 6] | – | IC50 (NCI-H1650, 48 h): 25 µM
CC(C)(C)OC(=O)N1C[C@@H](NS(=O)(=O)c2ccc(OC(F)(F)F)cc2)[C@H](O)[C@@H](N2c3ccc(C(F)(F)F)cc3Oc3cc(C(F)(F)F)ccc32)C1 [Example 57, (3S,4R,5R)-tert-butyl 3-(3,7-bis(trifluoromethyl)-10H-phenoxazin-10-yl)-4-hydroxy-5-(4-(trifluoromethoxy)phenylsulfonamido)piperidine-1-carboxylate] | 5 | –

Continued, in another order:

IC50 [1] [µM] | Compound | other results
5 | CC(C)(C)OC(=O)N1C[C@@H](NS(=O)(=O)c2ccc(OC(F)(F)F)cc2)[C@H](O)[C@@H](n2c3ccccc3c3ccccc32)C1 [Example 52a, (3S,4R,5R)-tert-butyl 3-(9H-carbazol-9-yl)-4-hydroxy-5-(4-(trifluoromethoxy)phenylsulfonamido)piperidine-1-carboxylate] | –
10 | CC(C)(C)OC(=O)N1C[C@H](NS(=O)(=O)c2ccc(OC(F)(F)F)cc2)[C@@H](O)[C@H](N2c3ccccc3Oc3ccccc32)C1 [Example 16b, (3R,4S,5S)-tert-butyl 4-hydroxy-3-(10H-phenoxazin-10-yl)-5-(4-(trifluoromethoxy)phenylsulfonamido)piperidine-1-carboxylate] | –
10 | O=S(=O)(N[C@@H]1CNC[C@H](n2c3ccccc3c3ccccc32)[C@H]1O)c1ccc(OC(F)(F)F)cc1 [Example 41a, N-((3R,4R,5S)-5-(9H-carbazol-9-yl)-4-hydroxypiperidin-3-yl)-4-(trifluoromethoxy)benzenesulfonamide] | –
15 | CN1C[C@H](NS(=O)(=O)c2ccc(OC(F)(F)F)cc2)[C@@H](O)[C@H](N2c3ccccc3Oc3ccccc32)C1 [Example 19b, N-((3S,4S,5R)-4-hydroxy-1-methyl-5-(10H-phenoxazin-10-yl)piperidin-3-yl)-4-(trifluoromethoxy)benzenesulfonamide] | –
10 | O=S(=O)(N[C@H]1CNC[C@@H](n2c3ccccc3c3ccccc32)[C@@H]1O)c1ccc(OC(F)(F)F)cc1 [Example 41b, N-((3S,4S,5R)-5-(9H-carbazol-9-yl)-4-hydroxypiperidin-3-yl)-4-(trifluoromethoxy)benzenesulfonamide] | –
15 | O=S(=O)(N[C@H]1COC[C@@H](N2c3ccccc3Oc3ccccc32)[C@@H]1O)c1ccc(OC(F)(F)F)cc1 [Example 2b, N-((3S,4S,5R)-4-hydroxy-5-(10H-phenoxazin-10-yl)tetrahydro-2H-pyran-3-yl)-4-(trifluoromethoxy)benzenesulfonamide] | –
